# Molecular target: D(2) dopamine receptor (Rattus norvegicus) (UniProt P61169)
# Assay: Activity against D2/RAC/R in the Eurofins Panlabs screen (BI)
# Settings: Compound concentration 10.0 uM
# Sequence of D(2) dopamine receptor (Rattus norvegicus) (P61169 whole entry): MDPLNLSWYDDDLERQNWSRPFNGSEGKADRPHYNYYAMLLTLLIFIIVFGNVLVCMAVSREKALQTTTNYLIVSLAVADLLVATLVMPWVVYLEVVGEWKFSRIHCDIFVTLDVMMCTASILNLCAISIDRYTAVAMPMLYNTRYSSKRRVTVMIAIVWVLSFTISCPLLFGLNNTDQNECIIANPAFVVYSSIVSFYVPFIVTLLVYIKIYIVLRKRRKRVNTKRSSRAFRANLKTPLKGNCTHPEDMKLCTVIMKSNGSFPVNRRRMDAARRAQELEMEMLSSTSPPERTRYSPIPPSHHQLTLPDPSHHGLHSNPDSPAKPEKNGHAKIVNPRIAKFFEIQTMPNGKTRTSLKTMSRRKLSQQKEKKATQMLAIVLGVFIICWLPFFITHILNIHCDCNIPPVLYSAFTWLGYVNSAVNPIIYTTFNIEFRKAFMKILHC
smiles,measurement,value
N=C(N)NCCC[C@@H](NC(=O)C(c1ccccc1)c1ccccc1)C(=O)NCc1ccc(CNC(N)=O)cc1,residual activity,84%
